Here are results for 18 compounds from USRE50528E1, “Compounds and compositions for modulating EGFR mutant kinase activities” (Yuhan Corporation, priority 2014, dated 2025).

The structures appear in SMILES notation.

The target of assay [1] is T1, EGFR mutant Del19 (E746-A750) (Homo sapiens, UniProt P00533, DEL746-750).
T1 construct: truncated human JAK3, EGFR mutants such as del E746-A750; purchased Carna Biosciences
Kind of assay: Kinase inhibition assay, EGFR del E746-A750.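 Note: truncated human EGFR mutant kinase, two-hour preincubation with compound, then one-hour reaction with ATP and ULight-PolyGT peptide, LANCE Europium-antibody phosphorylation readout, IC50.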 Type of assay: biochemical. Particulars: read-out: EGFR mutants Del19 (E746-A750).

In a further assay the target is T2, EGFR mutant L858R (Homo sapiens, UniProt P00533, L858R).
T2 construct: truncated human JAK3, EGFR mutants such as del E746-A750; purchased Carna Biosciences
T2 sequence (P00533 669-1210 L858R limits assumed): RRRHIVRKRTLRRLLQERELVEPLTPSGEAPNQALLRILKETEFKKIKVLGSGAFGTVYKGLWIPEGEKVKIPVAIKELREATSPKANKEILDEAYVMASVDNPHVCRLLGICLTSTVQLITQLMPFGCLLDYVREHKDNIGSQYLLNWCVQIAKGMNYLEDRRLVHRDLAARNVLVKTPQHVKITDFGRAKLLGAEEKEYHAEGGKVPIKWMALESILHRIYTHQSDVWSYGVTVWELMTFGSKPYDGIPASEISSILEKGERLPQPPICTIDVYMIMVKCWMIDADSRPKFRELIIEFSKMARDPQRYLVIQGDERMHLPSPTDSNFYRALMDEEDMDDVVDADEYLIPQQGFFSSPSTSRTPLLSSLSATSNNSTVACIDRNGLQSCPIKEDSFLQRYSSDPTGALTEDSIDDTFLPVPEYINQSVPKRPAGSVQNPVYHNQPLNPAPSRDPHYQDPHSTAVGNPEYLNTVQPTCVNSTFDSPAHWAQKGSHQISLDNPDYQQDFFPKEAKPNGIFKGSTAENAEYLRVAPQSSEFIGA
The experiment in a line: Kinase inhibition assay, EGFR L858R.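 Note: truncated human EGFR L858R kinase with compound preincubation, ULight-PolyGT peptide phosphorylation read by Europium-antibody Lance detection, IC50.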 Type of assay: biochemical. The settings on record: read-out: EGFR mutants L858R.

The next assay addresses T3, EGFR mutant L858R/T790M (Homo sapiens, UniProt P00533, L858R/T790M).
T3 construct: truncated human JAK3, EGFR mutants such as del E746-A750; purchased Carna Biosciences
Kind of assay: Kinase inhibition assay, EGFR L858R/T790M.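 Note: truncated human enzyme preincubated two hours with compound, then one hour with one millimolar ATP and ULight-PolyGT peptide, Europium-labeled antibody detection, IC50.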 Type of assay: biochemical. Particulars: read-out: EGFR mutants L858R/T790M.

A further assay deals with T4, EGFR mutant Del19/T790M (Homo sapiens, UniProt P00533, DEL746-750/T790M).
T4 construct: truncated human JAK3, EGFR mutants such as del E746-A750; purchased Carna Biosciences
T4 sequence (P00533 with tags, fused parts or gaps DEL746-750/T790M limits assumed): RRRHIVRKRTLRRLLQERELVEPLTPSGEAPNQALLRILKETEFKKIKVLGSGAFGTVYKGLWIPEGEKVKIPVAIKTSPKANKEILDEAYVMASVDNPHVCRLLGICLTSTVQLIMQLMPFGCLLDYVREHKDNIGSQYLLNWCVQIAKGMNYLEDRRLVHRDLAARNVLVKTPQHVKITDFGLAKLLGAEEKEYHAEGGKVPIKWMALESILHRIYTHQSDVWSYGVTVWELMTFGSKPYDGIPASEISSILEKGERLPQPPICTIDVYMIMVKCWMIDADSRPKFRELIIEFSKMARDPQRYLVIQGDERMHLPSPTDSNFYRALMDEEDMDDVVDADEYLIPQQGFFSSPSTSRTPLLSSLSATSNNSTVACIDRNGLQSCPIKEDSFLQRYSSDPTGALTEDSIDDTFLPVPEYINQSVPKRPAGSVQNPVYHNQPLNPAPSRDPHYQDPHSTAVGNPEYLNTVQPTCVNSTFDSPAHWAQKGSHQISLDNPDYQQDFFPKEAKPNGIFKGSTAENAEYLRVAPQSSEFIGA
Kind of assay: Kinase inhibition assay, EGFR del E746-A750/T790M. The assay is classed as biochemical. Particulars: read-out: EGFR mutants Del19/T790M.

In another assay the target is T5, SYK (Homo sapiens, UniProt P43405).
T5 construct: Purified human, full-length SYK, KDR; purchased Carna Biosciences
Kind of assay: Kinase inhibition assay, SYK.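 Note: purified full-length human SYK pre-incubated 30 min with compound, then ULight-TK peptide phosphorylation for 1 h, detected with Europium-labeled antibody in Lance buffer.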 The assay is classed as biochemical. Particulars: biochemical potency.

The next assay deals with T6, EGFR mutant T790M (Homo sapiens, UniProt P00533, T790M).
T6 construct: truncated human JAK3, EGFR mutants such as del E746-A750; purchased Carna Biosciences
T6 sequence (P00533 669-1210 T790M limits assumed): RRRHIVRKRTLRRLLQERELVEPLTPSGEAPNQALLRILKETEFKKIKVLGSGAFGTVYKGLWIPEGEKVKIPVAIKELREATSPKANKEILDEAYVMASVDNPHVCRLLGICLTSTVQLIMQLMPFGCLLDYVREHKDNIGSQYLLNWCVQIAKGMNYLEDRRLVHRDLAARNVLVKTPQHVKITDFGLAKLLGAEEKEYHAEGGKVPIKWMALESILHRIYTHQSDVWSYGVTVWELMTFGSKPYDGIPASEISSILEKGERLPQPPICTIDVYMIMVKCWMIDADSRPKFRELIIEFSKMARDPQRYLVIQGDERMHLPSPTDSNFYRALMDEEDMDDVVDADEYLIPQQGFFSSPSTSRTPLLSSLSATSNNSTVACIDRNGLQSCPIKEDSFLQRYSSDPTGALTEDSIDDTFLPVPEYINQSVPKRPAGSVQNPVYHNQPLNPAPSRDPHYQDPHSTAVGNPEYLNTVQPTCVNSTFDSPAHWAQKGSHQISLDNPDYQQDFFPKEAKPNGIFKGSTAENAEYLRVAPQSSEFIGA
Kind of assay: Kinase inhibition assay, EGFR mutant T790M.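 Note: truncated human EGFR mutant enzyme preincubated two hours with compound, then ATP plus ULight-PolyGT peptide for one hour, Europium-labeled antibody LANCE detection, IC50.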 The settings on record: biochemical potency.

T3 sequence (P00533 669-1210 T790M/L858R limits assumed): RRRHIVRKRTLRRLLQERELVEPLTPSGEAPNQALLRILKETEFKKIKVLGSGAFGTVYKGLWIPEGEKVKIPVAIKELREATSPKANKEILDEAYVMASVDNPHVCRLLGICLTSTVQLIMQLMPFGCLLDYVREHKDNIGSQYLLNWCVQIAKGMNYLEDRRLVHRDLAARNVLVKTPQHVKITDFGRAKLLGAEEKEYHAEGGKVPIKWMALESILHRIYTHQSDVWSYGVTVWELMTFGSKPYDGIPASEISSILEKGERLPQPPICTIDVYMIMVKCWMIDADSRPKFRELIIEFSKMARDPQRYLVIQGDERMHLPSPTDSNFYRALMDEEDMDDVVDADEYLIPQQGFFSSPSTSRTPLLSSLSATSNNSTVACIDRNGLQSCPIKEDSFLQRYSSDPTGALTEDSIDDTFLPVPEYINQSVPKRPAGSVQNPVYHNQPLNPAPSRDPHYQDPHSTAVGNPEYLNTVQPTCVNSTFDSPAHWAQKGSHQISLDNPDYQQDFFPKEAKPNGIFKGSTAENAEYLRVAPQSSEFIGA
T1 sequence (P00533 with tags, fused parts or gaps DEL746-750 limits assumed): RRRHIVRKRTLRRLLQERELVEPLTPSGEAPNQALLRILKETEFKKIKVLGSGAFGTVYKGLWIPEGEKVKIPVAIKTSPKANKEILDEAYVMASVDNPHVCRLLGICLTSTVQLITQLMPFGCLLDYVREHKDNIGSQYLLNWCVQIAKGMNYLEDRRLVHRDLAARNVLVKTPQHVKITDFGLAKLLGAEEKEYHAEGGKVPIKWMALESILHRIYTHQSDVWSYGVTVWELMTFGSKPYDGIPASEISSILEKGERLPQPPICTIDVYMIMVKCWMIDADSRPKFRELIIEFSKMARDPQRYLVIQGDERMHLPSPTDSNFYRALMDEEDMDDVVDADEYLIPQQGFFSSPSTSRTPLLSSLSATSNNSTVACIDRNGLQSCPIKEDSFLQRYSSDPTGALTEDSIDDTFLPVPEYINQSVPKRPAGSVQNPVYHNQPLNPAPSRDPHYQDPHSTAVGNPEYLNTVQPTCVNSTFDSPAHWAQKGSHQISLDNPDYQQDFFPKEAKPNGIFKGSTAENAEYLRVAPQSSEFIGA

Turning to `C=CC(=O)Nc1cc(Nc2nccc(-n3cc(CN4CC[C@@H](N(C)C)C4)cn3)n2)c(OC)cc1N1CCOCC1` [Compound 39, (R)—N-(5-(4-(4-((3-(dimethylamino)pyrrolidin-1-yl)methyl)-1H-pyrazol-1-yl)pyrimidin-2-ylamino)-4-methoxy-2-morpholinophenyl)acrylamide], the IC50 in assay [1] is 201 to 1000 nM; on EGFR mutant L858R it was 201 to 1000 nM; on EGFR mutant L858R/T790M, 201 to 1000 nM; on EGFR mutant Del19/T790M it was 20 to 200 nM; on SYK it was above 1000 nM.
In the case of `C=CC(=O)Nc1cc(Nc2ncc(F)c(-n3cc(CN(C)C)c(-c4ccoc4)c3)n2)c(OC)cc1N1CCOCC1` [Compound 131, N-(5-(4-(3-((dimethylamino)methyl)-4-(furan-3-yl)-1H-pyrrol-1-yl)-5-fluoropyrimidin-2-ylamino)-4-methoxy-2-morpholinophenyl)acrylamide], the IC50 at EGFR mutant T790M is below 20 nM; in assay [1], below 20 nM; on EGFR mutant L858R, below 20 nM; on EGFR mutant L858R/T790M, below 20 nM; at EGFR mutant Del19/T790M, below 20 nM; against SYK it was 201 to 1000 nM.
On to `C=CC(=O)Nc1cc(Nc2nccc(-n3cc(CN(C)CC)c(C4CC4)n3)n2)c(OC)cc1N1CCOCC1` [Compound 140, N-(5-(4-(3-cyclopropyl-4-((ethyl(methyl)amino)methyl)-1H-pyrazol-1-yl)pyrimidin-2-ylamino)-4-methoxy-2-morpholinophenyl)acrylamide], for which the IC50 against EGFR mutant T790M was below 20 nM; in assay [1], below 20 nM; on EGFR mutant L858R, below 20 nM; at EGFR mutant L858R/T790M it was below 20 nM; at EGFR mutant Del19/T790M it was below 20 nM; at SYK, above 1000 nM.
As to `C=CC(=O)Nc1cc(Nc2nccc(-n3cc(CN4CCC4)c(C4CC4)n3)n2)c(OC)cc1N1CCC1` [Compound 139, N-(2-(azetidin-1-yl)-5-(4-(4-(azetidin-1-ylmethyl)-3-cyclopropyl-1H-pyrazol-1-yl)pyrimidin-2-ylamino)-4-methoxyphenyl)acrylamide], the IC50 on EGFR mutant T790M was below 20 nM; in assay [1], below 20 nM; at EGFR mutant L858R, below 20 nM; at EGFR mutant L858R/T790M, below 20 nM; at EGFR mutant Del19/T790M, below 20 nM; on SYK it was above 1000 nM.
Consider `C=CC(=O)Nc1cc(Nc2ncc(C)c(-n3cc(CN(C)C4CN(C)C4)cn3)n2)c(OC)cc1N1CCOCC1` [Compound 23, N-(4-methoxy-5-(5-methyl-4-(4-((methyl(1-methylazetidin-3-yl)amino)methyl)-1H-pyrazol-1-yl)pyrimidin-2-ylamino)-2-morpholinophenyl)acrylamide], for which the IC50 against EGFR mutant T790M is 201 to 1000 nM; in assay [1], 201 to 1000 nM; at EGFR mutant L858R/T790M it was 201 to 1000 nM; on EGFR mutant Del19/T790M, 201 to 1000 nM; against SYK, above 1000 nM.
For `C=CC(=O)Nc1cc(Nc2nccc(-n3cc(CN4CC[C@H](N(C)C)C4)cn3)n2)c(OC)cc1N1CCOCC1` [Compound 35, (S)—N-(5-(4-(4-((3-(dimethylamino)pyrrolidin-1-yl)methyl)-1H-pyrazol-1-yl)pyrimidin-2-ylamino)-4-methoxy-2-morpholinophenyl)acrylamide], the IC50 in assay [1] is 201 to 1000 nM; at EGFR mutant L858R, 201 to 1000 nM; on EGFR mutant L858R/T790M, 201 to 1000 nM; on EGFR mutant Del19/T790M, 20 to 200 nM; on SYK, above 1000 nM.
Turning to `C=CC(=O)Nc1cc(Nc2nccc(-n3cc(CN4CCCC4)c(-c4ccccc4)n3)n2)c(OC)cc1N1CCOCC1` [Compound 90, N-(4-methoxy-2-morpholino-5-(4-(3-phenyl-4-(pyrrolidin-1-ylmethyl)-1H-pyrazol-1-yl)pyrimidin-2-ylamino)phenyl)acrylamide], the IC50 is below 20 nM in assay [1]; 20 to 200 nM at EGFR mutant L858R; below 20 nM at EGFR mutant L858R/T790M; below 20 nM at EGFR mutant Del19/T790M; above 1000 nM on SYK.
In the case of `C=CC(=O)Nc1cc(Nc2nccc(-n3cc(CN4CCC4)c(C)n3)n2)c(OC)cc1-c1ccccc1OC` [Compound 68, N-(4-(4-(4-(azetidin-1-ylmethyl)-3-methyl-1H-pyrazol-1-yl)pyrimidin-2-ylamino)-2′,5-dimethoxybiphenyl-2-yl)acrylamide], the IC50 was 20 to 200 nM in assay [1]; 201 to 1000 nM on EGFR mutant L858R; 20 to 200 nM at EGFR mutant L858R/T790M; 20 to 200 nM at EGFR mutant Del19/T790M; above 1000 nM on SYK.
As to `C=CC(=O)Nc1cc(Nc2ncc(F)c(-n3cc(C)c(CN4CCC4)c3)n2)c(OC)cc1N(C)C` [Compound 142, N-(5-(4-(3-(azetidin-1-ylmethyl)-4-methyl-1H-pyrrol-1-yl)-5-fluoropyrimidin-2-ylamino)-2-(dimethylamino)-4-methoxyphenyl)acrylamide], the IC50 in assay [1] was below 20 nM; on EGFR mutant L858R, below 20 nM; at EGFR mutant L858R/T790M it was below 20 nM; at EGFR mutant Del19/T790M it was below 20 nM; on SYK, 201 to 1000 nM.
Consider `C=CC(=O)Nc1cc(Nc2ncc(C)c(-n3cc(CN4CCC4)c(-c4ccccc4)n3)n2)c(OC)cc1N1CCOCC1` [Compound 121, N-(5-(4-(4-(azetidin-1-ylmethyl)-3-phenyl-1H-pyrazol-1-yl)-5-methylpyrimidin-2-ylamino)-4-methoxy-2-morpholinophenyl)acrylamide], for which the IC50 (on EGFR mutant T790M; in assay [1]; on EGFR mutant L858R; at EGFR mutant L858R/T790M; at EGFR mutant Del19/T790M) was below 20 nM in each case.
As for `C=CC(=O)Nc1cc(Nc2nccc(-n3cc(CN(C)CC)c(C4CC4)n3)n2)c(OC)cc1N1CCN(C(C)=O)CC1` [Compound 137, N-(2-(4-acetylpiperazin-1-yl)-5-(4-(3-cyclopropyl-4-((ethyl(methyl)amino)methyl)-1H-pyrazol-1-yl)pyrimidin-2-ylamino)-4-methoxyphenyl)acrylamide], the IC50 (against EGFR mutant T790M; in assay [1]; at EGFR mutant L858R; on EGFR mutant L858R/T790M; on EGFR mutant Del19/T790M) was below 20 nM each time.
`C=CC(=O)Nc1cc(Nc2nccc(-n3ccc(-c4ccccc4)n3)n2)c(OC)cc1N1CCN(C)CC1` [Compound 85, N-(4-methoxy-2-(4-methylpiperazin-1-yl)-5-(4-(3-phenyl-1H-pyrazol-1-yl)pyrimidin-2-ylamino)phenyl)acrylamide]: the IC50 at EGFR mutant T790M was below 20 nM; in assay [1], below 20 nM; on EGFR mutant L858R it was 20 to 200 nM; on EGFR mutant L858R/T790M, 20 to 200 nM; at EGFR mutant Del19/T790M, below 20 nM.
Turning to `C=CC(=O)Nc1cc(Nc2nccc(-n3cc(CN4CCC4)c(C)n3)n2)c(OC)cc1N1CCC(F)(F)CC1` [Compound 69, N-(5-(4-(4-(azetidin-1-ylmethyl)-3-methyl-1H-pyrazol-1-yl)pyrimidin-2-ylamino)-2-(4,4-difluoropiperidin-1-yl)-4-methoxyphenyl)acrylamide], the IC50 in assay [1] was below 20 nM; on EGFR mutant L858R, 20 to 200 nM; at EGFR mutant L858R/T790M, 20 to 200 nM; at EGFR mutant Del19/T790M it was below 20 nM; on SYK, above 1000 nM.
`C=CC(=O)Nc1cc(Nc2nccc(-n3cc(CN(C)CC)c(C)n3)n2)c(OC)cc1N1CCOCC1` [Compound 145, N-(5-(4-(4-((ethyl(methyl)amino)methyl)-3-methyl-1H-pyrazol-1-yl)pyrimidin-2-ylamino)-4-methoxy-2-morpholinophenyl)acrylamide]: the IC50 is 20 to 200 nM on EGFR mutant T790M; below 20 nM in assay [1]; below 20 nM on EGFR mutant L858R; below 20 nM at EGFR mutant L858R/T790M; below 20 nM at EGFR mutant Del19/T790M.
As to `C=CC(=O)Nc1cc(Nc2nccc(-n3cc(CN4CCC4)c(C(C)C)n3)n2)c(OC)cc1N(C)CCOC` [Compound 113, N-(5-(4-(4-(azetidin-1-ylmethyl)-3-isopropyl-1H-pyrazol-1-yl)pyrimidin-2-ylamino)-4-methoxy-2-((2-methoxyethyl)(methyl)amino)phenyl)acrylamide], the IC50 (against EGFR mutant T790M; in assay [1]; at EGFR mutant L858R; at EGFR mutant L858R/T790M; at EGFR mutant Del19/T790M) was below 20 nM each time.
Take `C=CC(=O)Nc1cc(Nc2nccc(-n3cc(CN(C)C)c(C(C)C)n3)n2)c(OC)cc1N(C)CCOC` [Compound 112, N-(5-(4-(4-((dimethylamino)methyl)-3-isopropyl-1H-pyrazol-1-yl)pyrimidin-2-ylamino)-4-methoxy-2-((2-methoxyethyl)(methyl)amino)phenyl)acrylamide]: the IC50 (at EGFR mutant T790M; in assay [1]; on EGFR mutant L858R; at EGFR mutant L858R/T790M; on EGFR mutant Del19/T790M) was below 20 nM throughout.
Consider `C=CC(=O)Nc1cc(Nc2ncc(C)c(-n3cc(CN(C)C)c(C4CC4)n3)n2)c(OC)cc1N(C)C1COC1` [Compound 132, N-(5-(4-(3-cyclopropyl-4-((dimethylamino)methyl)-1H-pyrazol-1-yl)-5-methylpyrimidin-2-ylamino)-4-methoxy-2-(methyl(oxetan-3-yl)amino)phenyl)acrylamide], for which the IC50 (on EGFR mutant T790M; in assay [1]; at EGFR mutant L858R; at EGFR mutant L858R/T790M; at EGFR mutant Del19/T790M) was below 20 nM in each case.
For the compound `C=CC(=O)Nc1cc(Nc2nccc(-n3cc(CN(C)C)c(-c4cccnc4)n3)n2)c(OC)cc1N1CCOCC1` [Compound 128, N-(5-(4-(4-((dimethylamino)methyl)-3-(pyridin-3-yl)-1H-pyrazol-1-yl)pyrimidin-2-ylamino)-4-methoxy-2-morpholinophenyl)acrylamide], the IC50 (at EGFR mutant T790M; in assay [1]; at EGFR mutant L858R; at EGFR mutant L858R/T790M; on EGFR mutant Del19/T790M) was below 20 nM throughout.
